Measured values: patent publication US20080051393A1, “Novel cannabinoids and methods of use” (Eastern Virginia Medical School, priority 2006, published 2008)

Test system: IOP in a rat glaucoma model
Assay: IOP after topical application in chronic rat glaucoma model
Type: in vivo, Sprague-Dawley rats
Conditions: 1.0% topical
Description: Rat Glaucoma Model. Compared to acute studies, a chronic rat model of glaucoma was generated. The rats were made glaucomatous by ligating three vortex veins (Hosseini, A. et al. (2006) Chronic topical administration of WIN-55-212-2 maintinas a reduction in IOP in a rat glaucoma model without adverse effects. Exp. Eye Res. 82(5):753-9). More specifically, ocular hypertension was induced in Sprague-Dawley rats by ligating 3 of 4 episcleral veins of the right eye using 9.0 nylon sutures under anesthesia with 3 mg/Kg acepromazine and 20 mg/Kg ketamine. Within 6 wk, IOP increased by at least 5 mm Hg in the operated eye. This intervention produced at least a 30% increase in IOP in the operated eye and lasted for up to 60 weeks. During this time, a 30% loss of retinal function was documented by ERG. […] Thus, the model accurately mimics the progressive damage that occurs in patients with glaucoma.
Measurements of Intraocular Pressure. IOP elevation was measured under mild sedation using a calibrated Goldmann tonometer modified for rats. Three determinations were averaged for each eye. To account for diurnal variation, all IOP's were measured between 11 am and 1 pm during the daily trough period.
Therapeutic Regimen. For IOP Measurements (Topical application) Baseline IOP, heart rate, blood pressure and normal ocular anatomy were documented prior to drug administration. The drugs WIN 55-212-2 (0.1%, 1.0%), O-1812 (0.01%, 0.1%, 1.0%), O-2545 (0.1%, 1.0%) were all dissolved in Tocrisolve™ (vehicle). IOP, heart rate, and blood pressure were measured prior to and after 30, 60 and 120 min after topical administration. Contralateral eyes served as vehicle treated controls.

Cc1c(C(=O)c2cccc3ccccc23)c2cccc3c2n1[C@@H](CN1CCOCC1)CO3 [WIN 55-212-3, reference compound]
Time for which significant IOP reduction was maintained: up to 120 min
Effect on IOP at 30 min (30 min): significantly lowered
IOP after 60 min (% of Baseline) (60 min): 86.5 ± 2.5 % of Baseline
